How the values were obtained:
Format in all cases: in vivo
[1] = test system: field corn (Zea mays L., var. Dekalb 535, CORN); assay: Post-emerge test, crop safety; settings: post-emerge, 14 days after application, rating scale 0-100
Outline: (§1)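 Fourteen days after spraying, crop and weed injury was graded visually from 0, no effect, to 100, every plant dead. Test substances were dissolved in acetone and applied at 15–1000 g ai/ha with a flat-fan nozzle. Application was either pre-emergence, one day after sowing, or post-emergence at the 2–3 leaf stage.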

[2] = test system: upland rice (Oryza sp., var. Tebonnet, RICE); assay: Post-emerge test, crop safety; settings: post-emerge, 14 days after application, rating scale 0-100
Outline: as §1

[3] = test system: field corn (Zea mays L., var. Dekalb 535, CORN); assay: Pre-emerge test, crop safety; settings: crop damage rating 0-100, 14 days after application
Outline: (§2)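 Plants grown in 10 cm pots of sandy loam mix received acetone-dissolved compounds through a moving flat-fan nozzle. Doses ranged from 15 to 1000 g ai/ha. Pre-emerge pots were seeded one day earlier, post-emerge pots 8–21 days earlier. Fourteen days on, each pot was graded 0–100 for damage.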

[4] = test system: upland rice (Oryza sp., var. Tebonnet, RICE); assay: Pre-emerge test, crop safety; settings: crop damage rating 0-100, 14 days after application
Outline: as §2

[5] = test system: sicklepod (Cassia obtusifolia, CASOB); assay: Pre-emerge test, greenhouse herbicide activity screening; settings: phytotoxicity rating 0-100, 14 days after application
Outline: as §1

[6] = test system: velvetleaf (Abutilon theophrasti, ABUTH); assay: as above; settings: phytotoxicity rating 0-100, 14 days after application
Outline: as §1

[7] = test system: johnsongrass (Sorghum halepense, SORHA); assay: as above; settings: phytotoxicity rating 0-100, 14 days after application
Outline: as §1

[8] = test system: green foxtail (Setaria viridis, SETVI); assay: as above; settings: phytotoxicity rating 0-100, 14 days after application
Outline: as §1

[9] = test system: ivyleaf morningglory (Ipomoea hederacea, IPOHE); assay: as above; settings: phytotoxicity rating 0-100, 14 days after application
Outline: as §1

[10] = test system: large crabgrass (Digitaria sanguinalis, DIGSA); assay: as above; settings: phytotoxicity rating 0-100, 14 days after application
Outline: as §1

[11] = test system: lambsquarters (Chenopodium album, CHEAL); assay: as above; settings: phytotoxicity rating 0-100, 14 days after application
Outline: as §1

[12] = test system: barnyardgrass (Echinochloa crus-galli, ECHCG); assay: as above; settings: phytotoxicity rating 0-100, 14 days after application
Outline: as §1

[13] = test system: common ragweed (Ambrosia artemisizfolia L., AMBEL); assay: as above; settings: phytotoxicity rating 0-100, 14 days after application
Outline: as §1

[14] = test system: redroot pigweed (Amaranthus retroflexus, AMARE); assay: as above; settings: phytotoxicity rating 0-100, 14 days after application
Outline: as §2

[15] = test system: sicklepod (Cassia obtusifolia, CASOB); assay: Post-emerge test, greenhouse herbicide activity screening; settings: post-emerge, 14 days after application, rating scale 0-100
Outline: (§3)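 Rating: 0–100 visual injury, 14 DAA. Application: acetone, 187 l/ha, 15–1000 g ai/ha, flat-fan track sprayer with nozzle 40–45 cm above soil or canopy. Post-emerge runs used 0.25% v/v surfactant on 2–3 leaf plants.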

[16] = test system: velvetleaf (Abutilon theophrasti, ABUTH); assay: as above; settings: post-emerge, 14 days after application, rating scale 0-100
Outline: as §3

[17] = test system: johnsongrass (Sorghum halepense, SORHA); assay: as above; settings: post-emerge, 14 days after application, rating scale 0-100
Outline: as §3

[18] = test system: green foxtail (Setaria viridis, SETVI); assay: as above; settings: post-emerge, 14 days after application, rating scale 0-100
Outline: as §3

[19] = test system: ivyleaf morningglory (Ipomoea hederacea, IPOHE); assay: as above; settings: post-emerge, 14 days after application, rating scale 0-100
Outline: as §3

[20] = test system: redroot pigweed (Amaranthus retroflexus, AMARE); assay: as above; settings: post-emerge, 14 days after application
Outline: as §3

[21] = test system: large crabgrass (Digitaria sanguinalis, DIGSA); assay: as above; settings: post-emerge, 14 days after application, rating scale 0-100
Outline: as §3

[22] = test system: lambsquarters (Chenopodium album, CHEAL); assay: as above; settings: post-emerge, 14 days after application, rating scale 0-100
Outline: as §3

[23] = test system: barnyardgrass (Echinochloa crus-galli, ECHCG); assay: as above; settings: post-emerge, 14 days after application, rating scale 0-100
Outline: as §3

SMILES: Cc1ccc(-n2c(=O)cc(C(F)(F)F)n(C)c2=O)c(NC(=O)c2ccc3ccccc3c2)c1 [2-201]
- phytotoxicity rating CORN (crop damage) ([1]; 63 g ai/ha): 30
- phytotoxicity rating CORN (crop damage) ([1]; 250 g ai/ha): 35
- phytotoxicity rating RICE (crop damage) ([2]; 63 g ai/ha): 60
- phytotoxicity rating RICE (crop damage) ([2]; 250 g ai/ha): 65
- Pre-emerge Herbicidal Activity CORN ([3]; 63 g ai/ha): 0
- Pre-emerge Herbicidal Activity CORN ([3]; 250 g ai/ha): 0
- Pre-emerge Herbicidal Activity RICE ([4]; 63 g ai/ha): 0
- Pre-emerge Herbicidal Activity RICE ([4]; 250 g ai/ha): 30
- Pre-emerge Herbicidal Activity CASOB ([5]; 63 g ai/ha): 0
- Pre-emerge Herbicidal Activity CASOB ([5]; 250 g ai/ha): 0
- Pre-emerge Herbicidal Activity ABUTH ([6]; 63 g ai/ha): 98
- Pre-emerge Herbicidal Activity ABUTH ([6]; 250 g ai/ha): 100
- Pre-emerge Herbicidal Activity SORHA ([7]; 63 g ai/ha): 0
- Pre-emerge Herbicidal Activity SORHA ([7]; 250 g ai/ha): 30
- Pre-emerge Herbicidal Activity SETVI ([8]; 63 g ai/ha): 0
- Pre-emerge Herbicidal Activity SETVI ([8]; 250 g ai/ha): 75
- Pre-emerge Herbicidal Activity IPOHE ([9]; 63 g ai/ha): 55
- Pre-emerge Herbicidal Activity IPOHE ([9]; 250 g ai/ha): 80
- Pre-emerge Herbicidal Activity DIGSA ([10]; 63 g ai/ha): 45
- Pre-emerge Herbicidal Activity DIGSA ([10]; 250 g ai/ha): 95
- Pre-emerge Herbicidal Activity CHEAL ([11]; 63 g ai/ha): 98
- Pre-emerge Herbicidal Activity CHEAL ([11]; 250 g ai/ha): 100
- Pre-emerge Herbicidal Activity ECHCG ([12]; 63 g ai/ha): 15
- Pre-emerge Herbicidal Activity ECHCG ([12]; 250 g ai/ha): 75
- Pre-emerge Herbicidal Activity AMBEL ([13]; 63 g ai/ha): 30
- Pre-emerge Herbicidal Activity AMBEL ([13]; 250 g ai/ha): 80
- Pre-emerge Herbicidal Activity AMARE ([14]; 63 g ai/ha): 95
- Pre-emerge Herbicidal Activity AMARE ([14]; 250 g ai/ha): 95
- phytotoxicity rating CASOB ([15]; 63 g ai/ha): 60
- phytotoxicity rating CASOB ([15]; 250 g ai/ha): 85
- phytotoxicity rating ABUTH ([16]; 63 g ai/ha): 95
- phytotoxicity rating ABUTH ([16]; 250 g ai/ha): 99
- phytotoxicity rating SORHA ([17]; 63 g ai/ha): 0
- phytotoxicity rating SORHA ([17]; 250 g ai/ha): 0
- phytotoxicity rating SETVI ([18]; 63 g ai/ha): 20
- phytotoxicity rating SETVI ([18]; 250 g ai/ha): 30
- phytotoxicity rating IPOHE ([19]; 63 g ai/ha): 95
- phytotoxicity rating IPOHE ([19]; 250 g ai/ha): 95
- phytotoxicity rating AMARE ([20]; 63 g ai/ha, rating scale 0-100 (0 no damage, 100 complete death)): 99
- phytotoxicity rating AMARE ([20]; 250 g ai/ha, rating scale 0-100): 100
- phytotoxicity rating DIGSA ([21]; 63 g ai/ha): 35
- phytotoxicity rating DIGSA ([21]; 250 g ai/ha): 45
- phytotoxicity rating CHEAL ([22]; 63 g ai/ha): 95
- phytotoxicity rating CHEAL ([22]; 250 g ai/ha): 98
- phytotoxicity rating ECHCG ([23]; 63 g ai/ha): 50
- phytotoxicity rating ECHCG ([23]; 250 g ai/ha): 60

From US6355799B1, “Substituted benzene compounds, process for their preparation, and herbicidal and defoliant compositions containing them” (ISK Americas Incorporated, priority 1997, dated 2002)
